Experimental data as given in patent publication US20260193254A1, “2-OXOQUINAZOLINE CRYSTALLINE FORMS” (IDEAYA Biosciences, Inc., priority 2022, published 2026).
Converted amounts (≈) assume the structure as drawn.

Experiments:
Assay type in all cases: physicochemical
[1] = Hygroscopicity: water sorption and desorption by dynamic vapor sorption (DVS)
Method: In some embodiments, the crystalline form described herein is further characterized by is further characterized by a dynamic vapor sorption (DVS) profile. In some embodiments, a DVS is recorded according to the method as described herein with a cycle of 40-0-95-0-40% RH at 25° C.
Water sorption and desorption behaviors of Form A, Form C, Form D, and Form T were investigated by DVS at 25° C. with a cycle of 40-0-95-0-40% RH. Dm/dt was 0.002. Minimum equilibration time was 60 min. Maximum equilibration time was 360 min. XRPD was measured after DVS test to determine potential form change.

[2] = Variable humidity and temperature XRPD experiments
Method: Based on DVS and DSC results of Form C, Form C starts to loss water when humidity is below 30% or when temperature is higher than about 44° C. […] In order to determine identity of potential form changes after the dehydration and upon the solid-solid transition, variable humidity and variable temperature XRPD techniques were applied. XRPD patterns of the sample were measured online under 25° C./ambient environment (initial)-120° C./N2 protection-25° C./ambient environment-25° C./80% RH (40 min)-25° C./0% RH (15 h), and 25° C./ambient environment (initial)-250° C./N2 protection-25° C./ambient environment. […] Form L coverts back to Form C after exposure to 25° C./80% RH for 40 min.
Based on DVS and DSC results of Form D, Form D starts to loss water when humidity is below 10% or when temperature is higher than 46° C. In order to determine identity of the dehydration product, variable humidity and variable temperature XRPD techniques were applied. XRPD patterns of the sample were measured online with a temperature cycle of 25° C./ambient environment (initial)-130° C./N2 protection (10 min)-25° C./N2 protection-25° C./ambient environment (3h) and two water sorption and desorption cycles of 50% RH (initial)-90% RH (3h)-60% RH (2h)-40% RH (2h)-20% RH (3h)-10% RH (3h)-0% RH (6h)-10% RH (3h)-20% RH (3h)-50% RH at 25° C. […] (higher than dehydration temperature). Form S converts back to Form D after exposure to ambient condition for 3 h.
In order to investigate potential form change of Form A upon heating, variable temperature XRPD technique was applied. XRPD patterns of the sample were measured online with a temperature cycle of 25° C. (initial)-50° C./N2 protection-70° C./N2 protection-250° C./N2 protection-25° C./N2 protection-25° C./ambient condition (3h). […] Form A converts to Form U when temperature is 250° C., and Form U converts to Form T after cooling to 25° C.

[3] = Competitive equilibration experiments; conditions: 25° C. and 50° C.
Method: These solvents were saturated with the compound of Formula (I) before addition of the polymorph seeds. Obtained suspension was stirred at 25° C. or 50° C. for 5 days. Solid part (wet cake) was isolated by filtration and investigated by XRPD.

[4] = Grinding simulation experiments - dry grinding
Method: About 20 mg of Form A, Form D, and Form T were ground manually with a mortar and a pestle for 5 min or 1 min. Potential from transition and degree of crystallinity were evaluated by XRPD.

[5] = Grinding simulation experiments - wet grinding (granulation)
Method: Water or ethanol was added drop wise to about 20 mg of Form A, Form D, or Form T until solid was wetted sufficiently. Vortex was applied between each addition. Samples were dried under ambient condition for 10 min. Potential form transition and degree of crystallinity were evaluated by XRPD.

[6] = Approximate solubility of solid state Form V at 25° C. and 50° C. (visual observation); conditions: thermodynamic from solid
Method: Maximum volume of each solvent added was 1 mL. Approximate solubility was determined by visual observation.

[7] = Crystallization at room temperature by slow evaporation; conditions: ambient condition
Source text: Combined with approximate solubility experiment, solubility samples were filtered by 0.45 μm nylon filter. Obtained solutions were slow evaporated at ambient condition. Solid residues were examined for their polymorphic form.

[8] = Crystallization from hot saturated solutions by fast cooling; conditions: 50° C. to ice bath
Method: Obtained solution or suspension was filtered by a 0.45 μm syringe membrane filter. Clear solutions were put into an ice bath and agitated. Precipitates were collected by filtration. The solid part (wet cake) was investigated by XRPD. When differences were observed, additional investigations were performed (e.g. DSC, TGA, etc.).

[9] = variable temperature XRPD, N2 protection

For Nc1nc(=O)n(-c2ccccc2Cl)c2nc(C(F)(F)F)ccc12 [Form A, 4-Amino-1-(2-chlorophenyl)-7-(trifluoromethyl)pyrido[2,3-d]pyrimidin-2(1H)-one], the hygroscopicity ([1]; DVS at 25° C., cycle 40-0-95-0-40% RH) was “slightly hygroscopic”, the water uptake ([1]; DVS, in 95% RH at 25° C.) was 0.7% and the “form change after the DVS test” value ([1]; XRPD after DVS) was “No form change”. For the same compound, the “XRPD (XRPD method 2)” value ([2]; VT16 70° C./37% RH (10 min)) was “Form A”, the “XRPD (XRPD method 2)” value ([2]; VT18 25° C./N2 protection (10 min)) was “Form T” and the “XRPD (XRPD method 2)” value ([2]; VT19 25° C./37% RH (3 h)) was “Form T”. For the same compound, the “form change after heating to 70° C.” value [2, 9] was “no form change”, the “form obtained on heating to 250° C.” value [2, 9] was “Form U” and the “form obtained in competitive equilibration experiments (relative stability of Form A and Form I)” value [3] was “Form A were obtained from all the experiments”. The “XRPD after dry grinding” value ([4]; Dry grinding for 1 min) was “substantially amorphous”, the “XRPD after dry grinding” value ([4]; Dry grinding for 5 min) was “substantially amorphous” and the “tolerance to dry grinding” value ([4]; ground manually with mortar and pestle, 5 min or 1 min, XRPD) was “poor tolerance”. The “XRPD after wet grinding” value ([5]; Ethanol) was “substantially amorphous” and the “tolerance to granulation with ethanol or water” value ([5]; wet grinding, XRPD) was “poor tolerance”.
Compound Nc1nc(=O)n(-c2ccccc2Cl)c2nc(C(F)(F)F)ccc12 [solid state Form V, 4-Amino-1-(2-chlorophenyl)-7-(trifluoromethyl)pyrido[2,3-d]pyrimidin-2(1H)-one] has a solubility at 10 min ([6]; organic solvent or mixture, SL2 Methanol, 25° C.) of 15000 to 18000 µg/mL (≈ 44 to 52.8 mM), a solubility at 10 min ([6]; organic solvent or mixture, SL2 Methanol, 50° C.) of 30000 to 35000 µg/mL (≈ 88.1 to 103 mM) and a solubility at 10 min ([6]; organic solvent or mixture, SL3 Ethanol, 25° C.) of 7000 to 8000 µg/mL (≈ 20.5 to 23.5 mM). For the same compound, the solubility at 10 min ([6]; organic solvent or mixture, SL3 Ethanol, 50° C.) was 15000 to 17000 µg/mL (≈ 44 to 49.9 mM), the solubility at 10 min ([6]; organic solvent or mixture, SL4 2-Propanol, 25° C.) was under 5000 µg/mL and the solubility at 10 min ([6]; organic solvent or mixture, SL4 2-Propanol, 50° C.) was 5000 to 10000 µg/mL (≈ 14.7 to 29.4 mM). For the same compound, the solubility at 10 min ([6]; organic solvent or mixture, SL5 Ethyl acetate, 25° C.) was under 5000 µg/mL, the solubility at 10 min ([6]; organic solvent or mixture, SL5 Ethyl acetate, 50° C.) was under 5000 µg/mL and the solubility at 10 min ([6]; organic solvent or mixture, SL6 Isopropyl acetate, 25° C.) was under 5000 µg/mL. It also gave a solubility at 10 min ([6]; organic solvent or mixture, SL6 Isopropyl acetate, 50° C.) of under 5000 µg/mL, a solubility at 10 min ([6]; organic solvent or mixture, SL7 Acetone, 25° C.) of under 5000 µg/mL and a solubility at 10 min ([6]; organic solvent or mixture, SL7 Acetone, 50° C.) of 5000 to 10000 µg/mL (≈ 14.7 to 29.4 mM). It also gave a solubility at 10 min ([6]; organic solvent or mixture, SL8 Methyl ethyl ketone, 25° C.) of under 5000 µg/mL, a solubility at 10 min ([6]; organic solvent or mixture, SL8 Methyl ethyl ketone, 50° C.) of under 5000 µg/mL and a solubility at 10 min ([6]; organic solvent or mixture, SL9 t-Butyl methyl ether, 25° C.) of under 5000 µg/mL. For the same compound, the solubility at 10 min ([6]; organic solvent or mixture, SL9 t-Butyl methyl ether, 50° C.) was under 5000 µg/mL, the solubility at 10 min ([6]; organic solvent or mixture, SL10 Tetrahydrofuran, 25° C.) was under 5000 µg/mL and the solubility at 10 min ([6]; organic solvent or mixture, SL10 Tetrahydrofuran, 50° C.) was under 5000 µg/mL. It also gave a solubility at 10 min ([6]; organic solvent or mixture, SL11 2-methyl-THF, 25° C.) of under 5000 µg/mL, a solubility at 10 min ([6]; organic solvent or mixture, SL11 2-methyl-THF, 50° C.) of under 5000 µg/mL and a solubility at 10 min ([6]; organic solvent or mixture, SL12 Acetonitrile, 25° C.) of under 5000 µg/mL. For the same compound, the solubility at 10 min ([6]; organic solvent or mixture, SL12 Acetonitrile, 50° C.) was under 5000 µg/mL, the solubility at 10 min ([6]; organic solvent or mixture, SL13 Heptane, 25° C.) was under 5000 µg/mL and the solubility at 10 min ([6]; organic solvent or mixture, SL13 Heptane, 50° C.) was under 5000 µg/mL. The solubility at 10 min ([6]; organic solvent or mixture, SL14 Dichloromethane, 25° C.) was under 5000 µg/mL, the solubility at 10 min ([6]; organic solvent or mixture, SL14 Dichloromethane, 50° C.) was under 5000 µg/mL and the solubility at 10 min ([6]; organic solvent or mixture, SL15 Toluene, 25° C.) was under 5000 µg/mL. It also gave a solubility at 10 min ([6]; organic solvent or mixture, SL15 Toluene, 50° C.) of under 5000 µg/mL, a solubility at 10 min ([6]; SL1 Water, 25° C.) of under 5000 µg/mL and a solubility at 10 min ([6]; SL1 Water, 50° C.) of under 5000 µg/mL. For the same compound, the “Crystalline Form formed by slow evaporation” value ([7]; SE1 Methanol (15 mg/mL)) was “Solid state Form V”, the “Crystalline Form formed by slow evaporation” value ([7]; SE2 Ethanol (7 mg/mL)) was “Form F with low crystalline” and the “Crystalline Form formed by slow evaporation” value ([7]; SE3 2-Propanol (5 mg/mL)) was “Form J (IPA solvate)”. For the same compound, the “Crystalline Form formed by slow evaporation” value ([7]; SE6 Acetone (5 mg/mL)) was “Form G”, the “Crystalline Form formed by slow evaporation” value ([7]; SE7 Methyl ethyl ketone (5 mg/mL)) was “Form G” and the “Crystalline Form formed by slow evaporation” value ([7]; SE9 Tetrahydrofuran (5 mg/mL)) was “Form K”. For the same compound, the “Crystalline Form formed by slow evaporation” value ([7]; SE12 Methanol/Ethyl acetate = 1/1 (v/v) (7 mg/mL)) was “Solid state Form V”, the “Crystalline Form formed by slow evaporation” value ([7]; SE13 Methanol/Acetonitrile = 1/1 (v/v) (11 mg/mL)) was “Solid state Form V” and the “Crystalline Form formed by fast cooling of hot saturated solution” value (from here on “Crystalline Form formed by fast cooling”) ([8]; FC1 Methanol (30 mg/mL)) was “Form C”. The “Crystalline Form formed by fast cooling” value ([8]; FC2 Ethanol (13 mg/mL)) was “Solid state Form V”, the “Crystalline Form formed by fast cooling” value ([8]; FC3 2-Propanol (7 mg/mL)) was “Form J (IPA solvate)” and the “Crystalline Form formed by fast cooling” value ([8]; FC4 Acetone (7 mg/mL)) was “Form G”. The “Crystalline Form formed by fast cooling” value ([8]; FC5 Methanol/water = 1/1 (v/v) (6 mg/mL)) was “Form C”, the “Crystalline Form formed by fast cooling” value ([8]; FC6 Ethanol/water = 1/1 (v/v) (8 mg/mL)) was “Form F” and the “Crystalline Form formed by fast cooling” value ([8]; FC7 Methanol/MTBE = 1/1 (v/v) (13 mg/mL)) was “Form H (MTBE solvate)”.
